Measurements from US20260248126A1, “BIOCIDE” (PURGOS APS, priority 2020, published 2026).

Tests used:
[1] = test system: microbial contamination of PVB dispersion (bacteria count); test: PVB dispersion treated with NBDA: microbial contamination by cATP (LuminUltra); assay type: cell-based; conditions: 25° C.
[2] = test system: Aspergillus niger ISI 3; test: Minimal inhibitory concentration (MIC), microtiter plate read visually; assay type: cell-based
Method: For the tested substance. the stock solution was 10%. Minimum inhibitory concentrations (MICs) are defined as the lowest concentration of an antimicrobial that will inhibit the visible growth of a microorganism after a standardized incubation. In the present study, MIC assay was performed by pipetting robot. The principle is that an indicator microorganism at a defined cell density is cultured with a range of concentrations of the test compound, one concentration pr. well in a row on the microtiter plate. For bacteria and yeasts the minimal inhibitory concentration was detected as no increase of optical density (OD), for moulds microtiter plates were read visually. Each indicator organism is tested in duplicate and the MIC is calculated as the average of the two determinations. The tested concentrations of the antimicrobial substances were 2-fold dilutions from 5%. All indicator organisms (see Table 2.) were pre-cultivated in a suitable growth medium and diluted in the same medium to give a final concentration in the assay of ~1×10^3 cfu/ml. The microtiter plates were incubated under specific incubation conditions (see Table 3). [table]

[3] = test system: Pseudomonas aeruginosa, ATCC 10145; test: PT6 screening: microbial activity in pre-formulated acrylic paint (total ATP, aerobic and anaerobic growth on agar plate); assay type: cell-based
Method: The microbial activity in relation to in-can preservation of paint was tested using three methods: ATP measurement, Aerobic growth on agar plate and Anaerobic growth on agar plate in low-air conditions. In the tests concentrations of 1, 2 and 5% NBDA was tested. […] Furthermore, no significant dependence on concentration was shown in these specific tests. Specific about the ATP measurements: test and method developed by Luminultra. A sample is taken from the test paint at a given time and the total amount of ATP is measured. Total ATP amount are measured at Day 7 and 30. After every ATP measurement, streaking of test material on agar plates has been performed. Growth test in aerobic and anaerobic environment are running in 1 and 14 days, respectively. • Test organism: Pseudomonas aeruginosa, ATCC 10145 The screening has been continuously expanded so that there are individual start-ups of three different trials. See further information in the overview table, table VIII. Table VIII overview. Samples in test. Commercial biocide is Vinkocide CMIK®. Acrylic paint is standard EN 152 (modified without PT6 biocide). P. aeruginosa are inoculated in 200 μl concentration to paint sample size of 140 ml in a sterile “paint can-shape” container. […] “Anaerobic growth day 30” were inoculated on day 20 and measured on day 31.

[4] = test system: Coniophora puteana. BAM Ebw. 15; test: EN 113 test against wood destroying basidiomycetes (impregnated Scots pine sapwood); assay type: cell-based
[5] = test system: Poria placenta. FPRL 280; test: as above; assay type: cell-based; conditions: for Corrected mass loss / Mass loss: Mean
[6] = Acute oral toxicity LD50; assay type: in vivo; conditions: worked out from rat LD50 4250 mg/kg
[7] = test system: selected typical species of contaminants; test: Substitution of conventional biocides with NBDA in product recipes: biocidal function (LuminUltra test, 32° C. incubation, Examples 3-6); assay type: cell-based
Source text: Provision and test of the N-sample can be optional.
Ideally, the T, C and N-samples are provided and stored using methods, protocols, raw materials, conditions and the like, which are very close, and ideally identical, mutatis mutandis. In particular, the samples should be subjected to similar or identical microbial contamination during their provision, and or storage if possible.
Samples, such as test-, control- and/or negative control samples are provided according to Example 3. To assess the effect of the biocide(s), microbial contamination is measured, such as according to Example 6, or other conventional methods known in the art.
In short, samples are exposed to microbial contamination (microbial stress test) e.g., by opening a lid and closing it for a defined period of time, or other operations, mimicking a conventional user situation. Alternatively, samples can be inoculated with defined quantities of microorganisms, such as one or more indicator microorganism.
The samples can be divided into different aliquots, and incubated for selected periods at one or more relevant temperatures, such as e.g., one or more of 4° C., room temperature (RT, usually 20° C., 22° C., or 25° C.), 30° C., 32° C., 37° C., 40° C., and/or 60° C.), simulating e.g., appropriate storage, processing and usage conditions.
Microbial contamination of control, test and/or negative control samples can be determined according to Example 6.
ATP, such as intracellular ATP is measured using a commercially available system, such as provided by LumiUltra®, in particular a method using luminase (Aqua Tools, see details below).
In short, a buffering solution and Luminase enzyme are mixed. After daily ATP standard calibration, an aliquot, such as 1 ml of sample is transferred to an 1 ml extraction tube. After dilution in UltraLute resin, the total ATP (content can be established in the luminescence measuring device. 2) 1 ml sample is dissolved in LumiSolve stabilizing agent. […] For further details, see e.g., Aqua Tools (78300 Poissy, France) Quick reference guide QuenchGone21™ Speciality Test Kit QG21S-50/QG21St-100 2G.

CCCCN(CCO)CCO [NBDA, N-butyldiethanolamine]
pH ([1]; 0.50% NBDA, after 1 month): 9.73
pH ([1]; 0.50% NBDA, after 1 week): 9.65
pH ([1]; 0.50% NBDA, after 3 months): 9.62
pH ([1]; 0.50% NBDA, after 6 months): 9.58
pH ([1]; 0.50% NBDA, after 1 day): 9.77
pH ([1]; 1.00% NBDA, after 1 month): 9.86
pH ([1]; 1.00% NBDA, after 1 week): 9.89
pH ([1]; 1.00% NBDA, after 3 months): 9.93
pH ([1]; 1.00% NBDA, after 6 months): 9.67
pH ([1]; 1.00% NBDA, after 1 day): 10.2
MIC (%) [2]: 0.63%
anti-microbial potential in paint (ATP, aerobic and anaerobic growth) ([3]; 1, 2 and 5% NBDA in acrylic paint): all three concentrations reveal anti-microbial potentials
effect against aerobic bacteria, in-can preservation of paints ([3]; concentrations of 0.5%, 1%, 2%, and 5%): effective against aerobic bacteria such Gram-negative bacteria such as Pseudomonas aeruginosa
Toxic value, Sol. conc. [4]: >1.43 % w/w
Toxic value, Sol. conc. [5]: 0.72-1.01 % w/w
Corrected mass loss ([5]; Solution conc. 0.36 % w/w): 14.2%
Corrected mass loss ([5]; Solution conc. 0.72 % w/w): 8.2%
Mass loss ([5]; Solution conc. 0.72 % w/w): 7.8%
Corrected mass loss ([5]; Solution conc. 1.01 % w/w): 1.4%
Mass loss ([5]; Solution conc. 1.01 % w/w): 1.0%
Corrected mass loss ([5]; Solution conc. 1.43 % w/w): 1.5%
Mass loss ([5]; Solution conc. 1.43 % w/w): 0.4%
fungicide effect, preventing wood destruction ([5]; concentrations of 0.36%, 0.51%, 0.72%, 1.01% and 1.43%): effective as a fungicide for preventing wood destruction
human consummation equivalent to LD50 [6]: 319 gram pr 75 kg
biocidal effect vs normal biocide package ([7]; Styrene-Butadiene-Rubber (SBR)-emulsion, MIT and/or BIT replaced (Example 16)): comparable and better than the normal biocide package
biocidal effect vs benzalkonium chloride ([7]; algae removing compound, 1-5% (Example 9)): comparable or even surpassing benzalkonium chloride in function
biocidal effect vs benzalkonium chloride ([7]; circulating heat-transfer systems, 1-5% (Example 13)): comparable to benzalkonium chloride
biocidal effect vs normal biocide package ([7]; combination products: dispersions, emulsions, suspensions (Example 19)): comparable and better than the normal biocide package
preservation effect vs food preservatives ([7]; food, comparable amounts (Example 40)): shows compatibility and suitable preservation effect(s)
biocidal effect vs normal biocide package ([7]; hand cleanser (Example 37)): comparable or even better than the normal biocide package
biocidal effect vs conventional biocide ([7]; liquid dishwashing compound, MIT and/or BIT replaced with 0.01-1% (Example 7)): comparable to or even surpassing the conventional biocide
biocidal effect vs benzalkonium chloride ([7]; liquid disinfection compound for pipes, 1-5% (Example 11)): comparable to benzalkonium chloride
biocidal effect vs benzalkonium chloride and glutaraldehyde ([7]; liquid disinfection compound for stables, 1-5% (Example 10)): comparable or even surpassing both benzalkonium chloride and glutaraldehyde in function
biocidal effect vs benzalkonium chloride ([7]; liquid disinfection compound, 1-5% (Example 8)): comparable or even surpassing benzalkonium chloride in function
biocidal effect vs normal biocide package ([7]; moisturizing crème / skin- or face-care product (Example 35)): comparable or even better than the normal biocide package
performance vs MIT/BIT system ([7]; precoat composition containing SBR, 0.5% NBDA (Example 24)): same performance as the origin
biocidal effect vs normal biocide package ([7]; soap (Example 38)): comparable or even better than the normal biocide package
biocidal effect vs normal biocide package ([7]; stabilized suspension, MIT and BIT replaced (Example 18)): comparable and better than the normal biocide package
biocidal effect vs chlorine based solutions ([7]; swimmingpool water (Example 36)): comparable or even better than chlorine based traditional solutions
biocidal effect vs benzoate ([7]; toothpaste, benzoate replaced with similar concentration (Example 34)): comparable or even better than benzoate
biocidal effect vs benzalkonium chloride ([7]; waterborne cooling compound, 1-5% (Example 12)): comparable or surpassing benzalkonium chloride
biocidal effect vs benzalkonium chloride ([7]; watersystems for toilets, washing facilities, 1-5% (Example 14)): comparable to benzalkonium chloride
